Results reported in US4208327A, “5-Aryl-1-(2-oxazolin-2-yl)-1H-1,4-benzodiazepines and related compounds” (G. D. Searle & Co., priority 1979, dated 1980).

Columns and labels:
[1] = Multiple VI-FR conflict procedure (anti-conflict, anti-anxiety); format: in vivo, squirrel monkey; conditions: intragastric
[2] = Comparison of durations of anti-conflict activity, drug crossover design, 16 hours after treatment; format: in vivo, squirrel monkey; conditions: molar equivalent dose, 16 hours later; for bar pressing rate during the conflict segments, % of pre-compound control levels: 14 squirrel monkeys, crossover
[3] = Potentiation of a sub-hypnotic dose of pentobarbital sodium (loss of righting reflex); format: in vivo, mice; conditions: for ED50 (95% confidence limits), potentiation of pentobarbital sodium (loss of righting reflex): pentobarbital sodium 20 mg/kg i.p.
Description: In this procedure an ED50 for loss of righting reflex was established.

[4] = Blockade of pentylenetetrazole induced clonic convulsions, intravenous; format: in vivo, mice; conditions: for ED50: Mus musculus, read-out: ED50 (95% confidence limits), anti-pentylenetetrazole effect
[5] = Rotarod test (muscle relaxant); format: in vivo, mice; conditions: intragastric; for ED50: Mus musculus, po, read-out: Rotarod ED50 (95% confidence limits)
Experimental: Using this procedure [after Dunham, N.W. and T.S. Miya, J. Amer. Pharm. […] The compounds were administered intragastrically to mice at varying time periods before being placed on the horizontal rotating (4.4 rpm) rod. Different groups of mice were assigned to each time period so that a subject was tested only once. A testing trial consisted of two opportunities to stay on the rod for one minute. ED50 's were calculated for each time period.

[6] = Blockade of pentylenetetrazole induced clonic convulsions, intragastric; format: in vivo, mice; conditions: for ED50: Mus musculus, po
Experimental: Exp. Ther., 108, 168 (1953)]. […] Both test compounds were administered intragastrically at specific time periods prior to the pentylenetetrazole challenge, and the ED50 for blockade of clonic convulsions was determined for each time period. Duration of activity is inferred from increases in the ED50 with time.

[7] = intragastric, .25 hours, 15 min
[8] = 5 min, read-out: ED50 (95% confidence limits), anti-pentylenetetrazole effect, 5 min
[9] = 0.5 h, read-out: ED50 (95% confidence limits), anti-pentylenetetrazole effect, 30 min
[10] = read-out: ED50 (95% confidence limits), anti-pentylenetetrazole effect, 15 min
[11] = read-out: ED50 (95% confidence limits), anti-pentylenetetrazole effect, 1 hour
[12] = read-out: ED50 (95% confidence limits), anti-pentylenetetrazole effect, 2 hours
[13] = read-out: ED50 (95% confidence limits), anti-pentylenetetrazole effect, 4 hours
[14] = read-out: ED50 (95% confidence limits), anti-pentylenetetrazole effect, 8 hours

## Clc1ccc2c(c1)C(c1ccccc1Cl)=NCCN2C1=NCCO1 [Compound I, 7-chloro-5-(o-chlorophenyl)-2,3-dihydro-1-(2-oxazolin-2-yl)-1H-1,4-benzodiazepine]
[1]; 1.26 mg/kg, N 5
  Conflict (FR) bar pressing rate, percentage of average pre-compound control rate: 1519%
  Non-Conflict (VI) bar pressing rate, percentage of average pre-compound control rate: 46%
[1]; .07 mg/kg, N 5
  Conflict (FR) bar pressing rate, percentage of average pre-compound control rate: 281%
  Non-Conflict (VI) bar pressing rate, percentage of average pre-compound control rate: 100%
[1]; .07 to 1.26 mg/kg
  dose response of bar pressing rates during the conflict segment: clear dose responsive increase in bar pressing rates during the conflict segment
[1]; .126 mg/kg, N 6
  Conflict (FR) bar pressing rate, percentage of average pre-compound control rate: 514%
  Non-Conflict (VI) bar pressing rate, percentage of average pre-compound control rate: 101%
[1]; .404 mg/kg, N 6
  Conflict (FR) bar pressing rate, percentage of average pre-compound control rate: 1286%
  Non-Conflict (VI) bar pressing rate, percentage of average pre-compound control rate: 100%
[2]
  duration of anti-anxiety (anti-conflict) action, in words: shorter duration of action of anti-anxiety effect
  bar pressing rate during the conflict segments, % of pre-compound control levels: 123%
[3]; compared with a standard benzodiazepine (diazepam)
  duration of sedative-hypnotic activity: shorter duration of sedative-hypnotic activity
[3]; intragastric, 1.0 hours
  ED50 (95% confidence limits), potentiation of pentobarbital sodium (loss of righting reflex): 24.1(17.9-32.4) mg/kg
[3]; intragastric, 2.0 hours
  ED50 (95% confidence limits), potentiation of pentobarbital sodium (loss of righting reflex): 39.1(28.1-54.3) mg/kg
[3]; [7]
  ED50 (95% confidence limits), potentiation of pentobarbital sodium (loss of righting reflex): 5.6(3.8-8.4) mg/kg
[3]; intragastric, two hour period
  increase of ED50 for potentiating pentobarbital sodium: about 7 fold
[4]; 1 min, intravenous, 1 min
  ED50: 0.12 mg/kg
[4]; 0.5 h, intravenous, 30 min
  ED50: 0.23 mg/kg
[4]; intravenous, 15 min
  ED50: 0.18 mg/kg
[4]; intravenous, 1 hour
  ED50: 0.57 mg/kg
[4]; intravenous, 2 hours
  ED50: 1.44 mg/kg
[4]; intravenous, 4 hours
  ED50: 4.79 mg/kg
[4]; intravenous, 8 hours
  ED50: 17.8 mg/kg
  increase of ED50 over the 8 hour period: ~150 fold
[4]; intravenous
  time to peak activity: one
[4]; intravenous as well as intragastric route
  anti-convulsant effectiveness: effective as an anti-convulsant
[4]; intravenous, compared with diazepam
  duration of activity: shorter duration of activity
[5]; 0.08 h, .08 hours
  ED50: 8.5 mg/kg
[5]; 0.5 h, .5 hours
  ED50: 8.9 mg/kg
[5]; 1.0 hours
  ED50: 24 mg/kg
[5]; 2.0 hours
  ED50: 74.9 mg/kg
[5]; .25 hours
  ED50: 2.9 mg/kg
[5]
  increase of rotarod ED50 from 15 minutes to 2 hours: 25 fold
  time to peak effect (rotarod): ≤ 15 min
[5]; compared with diazepam
  duration of action (rotarod): shorter duration of action
[5]; two hours
  loss of potency over the two hour period (rotarod): rapidly lost potency
[6]
  time to peak anti-pentylenetetrazole activity: ≤ 15 min
  increase of ED50 by 8 hours: about 20 fold
[6]; 30 minutes
  change of ED50 in 30 minutes: nearly doubled
[6]; [8]
  ED50: 3.8 mg/kg
[6]; [9]
  ED50: 1.9 mg/kg
[6]; [10]
  ED50: 1 mg/kg
[6]; [11]
  ED50: 1.8 mg/kg
[6]; [12]
  ED50: 6.2 mg/kg
[6]; [13]
  ED50: 7.1 mg/kg
[6]; [14]
  ED50: 19.6 mg/kg
[6]; compared with diazepam
  duration of activity: much shorter duration of activity than Diazepam

## CN1C(=O)CN=C(c2ccccc2)c2cc(Cl)ccc21 [Diazepam, diazepam, reference compound]
[2]
  duration of anti-anxiety (anti-conflict) action, in words: still produced pronounced anti-conflict effects
  bar pressing rate during the conflict segments, % of pre-compound control levels: 1265%
[3]; intragastric, 1.0 hours
  ED50 (95% confidence limits), potentiation of pentobarbital sodium (loss of righting reflex): 3.8(2.7-5.4) mg/kg
[3]; intragastric, 2.0 hours
  ED50 (95% confidence limits), potentiation of pentobarbital sodium (loss of righting reflex): 3.6(2.4-5.4) mg/kg
[3]; [7]
  ED50 (95% confidence limits), potentiation of pentobarbital sodium (loss of righting reflex): 4.1(2.7-6.3) mg/kg
[4]; 1 min, intravenous, 1 min
  ED50: 0.07 mg/kg
[4]; 0.5 h, intravenous, 30 min
  ED50: 0.23 mg/kg
[4]; intravenous, 15 min
  ED50: 0.26 mg/kg
[4]; intravenous, 1 hour
  ED50: 0.48 mg/kg
[4]; intravenous, 2 hours
  ED50: 0.75 mg/kg
[4]; intravenous, 4 hours
  ED50: 1.16 mg/kg
[4]; intravenous, 8 hours
  ED50: 1.78 mg/kg
  increase of ED50 over the 8 hour period: 25 fold
[6]
  time to peak anti-pentylenetetrazole activity: ≤ 15 min
  increase of ED50 by 8 hours: 2 fold
[6]; [8]
  ED50: 1.1 mg/kg
[6]; [9]
  ED50: 0.8 mg/kg
[6]; [10]
  ED50: 0.9 mg/kg
[6]; [11]
  ED50: 0.8 mg/kg
[6]; [12]
  ED50: 0.7 mg/kg
[6]; [13]
  ED50: 1.6 mg/kg
[6]; [14]
  ED50: 1.4 mg/kg
